Earlier results on three molecules are cited in patent US20210298340A1, “Cannabis-Infused Product with Extended Cannabinoid Profile User Experience” (HEXO Operations Inc., priority 2018, published 2021).

The conditions of series [1]: dogs; emulsion with droplet size 119 nm or 52 nm.
For series [2] the following is noted: rats; solution in MCT oil or emulsion with droplet size 160 nm or 710 nm.
The subject of series [3] is skin. As to conditions: 3 macro-emulsions >1000 nm and 3 nano-emulsions <100 nm.

Like-named read-outs stand apart in the source and are kept apart here.

Regarding `CCCCN(CCCC)CCC(O)c1cc2c(Cl)cc(Cl)cc2c2cc(C(F)(F)F)ccc12` (stereo not drawn) [halofantrine], the bioavailability result in series [1] is reported as “comparable”. Consider `COc1nc(C(Cl)(Cl)Cl)c(Cl)c(OC)c1Cl` [penclomedine], for which, in series [2], the bioavailability result is given as “comparable”. `CCCCNc1ccc(C(=O)OCCN(C)C)cc1` [tetracaine]: the “influence of emulsion droplet size on in vitro dermal and transdermal skin penetration” value in series [3] is listed as “no influence”.
